The test system of assay [1] is GSK3β phosphorylation at serine 9. Nature of the assay: Immunoblot of GSK3β phosphorylation at serine 9 in HUVECs. In kind it is cell-based, human. Particulars: for serum-induced phosphorylation of GSK3β: serum-starved HUVECs, 1 hour pretreatment with agent, 10% FBS 1 hour.
Procedure: Cell culture and adenoviral vectors. Human umbilical vein ECs (HUVECs) were isolated as previously described (29) and cultured in EGM media (Clonetics, Walkersville, Md.). Four to six passage cells were used in this study. To examine the regulation of GSK3β phosphorylation, HUVECs were serum-starved for 15 hours, treated with the indicated agents for 1 hour, and stimulated with 10% fetal bovine serum.
Immunoblot analysis. HUVECs were washed in phosphate-buffered saline and harvested by scraping in 50 mM Tris-HCl (pH 7.2), 250 mM NaCl, 1% NP40, 0.05% SDS, 2 mM EDTA, 0.5% deoxycholic acid, 10 mM 13-glycerophosphate, 1 mM vanadate, 1 mM phenyl methyl sulfonyl fluoride (PMSF). One mini tablet of protease inhibitor cocktail (Roche, Summerville, N.J.) per 10 ml of lysis buffer, vanadate, and PMSF were added just prior to use. Protein concentration was determined with protein assay kit (Pierce, Rockford, Ill.). Protein (20 μg) was separated on SDS-polyacrylamide electrophoresis gel and transferred to a polyvinylidene difluoride membrane (Millipore, Bedford, Mass.). The membrane was blocked with T-PBS (1×PBS, 0.3% Tween-20) containing 3% dry milk and incubated with primary antibody overnight at 4° C. After three washes with T-PBS, the membrane was reblocked and incubated with secondary antibody for 1 hour at room temperature. ECL or ECL-PLUS (Amersham, Piscataway, N.J.) was used for detection. To reprobe the membrane, it was treated with Restore Western Blot stripping buffer (Pierce, Rockford, Ill.). The primary antibodies used were anti-phospho GSK-3β (Ser9) antibody (1:750 dilution, Cell Signaling Technology, Beverly, Mass.), anti-phospho Akt (Ser473) antibody (1:250 dilution, Cell Signaling Technology, Beverly, Mass.), anti-total GSK-3β antibody (1:1000 dilution, Santa Cruz, Santa Cruz, Calif.), and anti-a tubulin antibody (1:4000 dilution, Oncogene, Boston, Mass.).
The subject of another assay is Akt phosphorylation. Nature of the assay: Immunoblot of Akt phosphorylation in HUVECs. In kind it is cell-based, human. The note with it: for Akt phosphorylation: HUVECs, single agent; for level of Akt phosphorylation: combined administration of PD98059 and SB203480, presence or absence of PI3K inhibition.

Procedure for Akt phosphorylation: To examine the regulation of GSK3β phosphorylation, HUVECs were serum-starved for 15 hours, treated with the indicated agents for 1 hour, and stimulated with 10% fetal bovine serum.
Immunoblot analysis. HUVECs were washed in phosphate-buffered saline and harvested by scraping in 50 mM Tris-HCl (pH 7.2), 250 mM NaCl, 1% NP40, 0.05% SDS, 2 mM EDTA, 0.5% deoxycholic acid, 10 mM 13-glycerophosphate, 1 mM vanadate, 1 mM phenyl methyl sulfonyl fluoride (PMSF). One mini tablet of protease inhibitor cocktail (Roche, Summerville, N.J.) per 10 ml of lysis buffer, vanadate, and PMSF were added just prior to use. Protein concentration was determined with protein assay kit (Pierce, Rockford, Ill.). Protein (20 μg) was separated on SDS-polyacrylamide electrophoresis gel and transferred to a polyvinylidene difluoride membrane (Millipore, Bedford, Mass.). The membrane was blocked with T-PBS (1×PBS, 0.3% Tween-20) containing 3% dry milk and incubated with primary antibody overnight at 4° C. After three washes with T-PBS, the membrane was reblocked and incubated with secondary antibody for 1 hour at room temperature. ECL or ECL-PLUS (Amersham, Piscataway, N.J.) was used for detection. To reprobe the membrane, it was treated with Restore Western Blot stripping buffer (Pierce, Rockford, Ill.). The primary antibodies used were anti-phospho GSK-3β (Ser9) antibody (1:750 dilution, Cell Signaling Technology, Beverly, Mass.), anti-phospho Akt (Ser473) antibody (1:250 dilution, Cell Signaling Technology, Beverly, Mass.), anti-total GSK-3β antibody (1:1000 dilution, Santa Cruz, Santa Cruz, Calif.), and anti-a tubulin antibody (1:4000 dilution, Oncogene, Boston, Mass.). The secondary antibodies were anti-rabbit IgG/HRP conjugate or anti-mouse IgG/HRP conjugate (1:2500 dilution, Promega, San Luis Obispo, Calif.).

In the case of `O=S(=O)(NCCNC/C=C/c1ccc(Br)cc1)c1cccc2cnccc12` [H89], the “induction of GSK3β phosphorylation by 8-bromo cAMP or forskolin” value in assay [1] (pretreatment with H89, serum-deprived HUVECs) is given as “blocked”. In addition, the “serum-induced phosphorylation of GSK3β” value in assay [1] was “inhibited”. In addition, in the assay with Akt phosphorylation, the Akt phosphorylation entry is “promoted”.

Turning to `C[S+]([O-])c1ccc(-c2nc(-c3ccncc3)c(-c3ccc(F)cc3)[nH]2)cc1` (stereo not drawn) [SB203480], the “serum-induced phosphorylation of GSK3β” value in assay [1] is recorded as “partially inhibited”. Further, in the assay on Akt phosphorylation, the Akt phosphorylation result is “not” and the “level of Akt phosphorylation” value was “detectably elevated”.

For the molecule `COc1cccc(-c2cc(=O)c3ccccc3o2)c1N` [PD98059], in assay [1], the “serum-induced phosphorylation of GSK3β” value is “partially inhibited”. In the assay on Akt phosphorylation, the Akt phosphorylation entry is on record as “not” and the “level of Akt phosphorylation” value is “detectably elevated”.

(Values after patent US20030114382A1, “Glycogen synthase kinase function in endothelial cells” (priority 2001, published 2003).)
